Measured values reported in patent US8178497B2, “Method of treating HIV in drug resistant non plasma viral reservoirs with monomeric DAPTA” (Rapid Pharmaceuticals AG, priority 2007, dated 2012).
Like-named read-outs stand apart in the source and are kept apart here.

Assays:
CCR5 [1] = target: T1, CCR5 (Homo sapiens, UniProt P51681); test: CCR5 expression on SK-N-SH neuronal cells, 2D7 mAb staining; format: cell-based; set-up: CCR5 expression in these differentiated cells is limited and further reduced in the presence of DAPTA; endogenous in cells; host or cells: SK-N-SH (differentiated with retinoic acid)
Excerpt: To assess CCR5 expression on surface of neuronal cell lines, SK-N-SH were stained with 2D7 mAb in presence or in absence of DAPTA (at different doses) and TAK-779. SK-N-SH line has the potential of differentiating to neural cells in the presence of retinoic acid, and it has been used as a model of primary neurons.

[2] = test system: SK-N-SH cells exposed to R5 HIV-1 strain BaL; test: apoptosis of differentiated SK-N-SH cells exposed to HIV-1 BaL, FACS; format: cell-based; settings: for apoptosis, share of SK-N-SH cells: day 5, 60% with HIV-1BaL alone
Excerpt: Finally, we exposed differentiated SK-N-SH cells to the R5 HIV-1 strain BaL, in the presence or absence of monomeric DAPTA, and assessed neuronal apoptosis. […] To compare the anti-apoptotic effect of monomeric DAPTA with other CCR5-binding molecules, we also tested the CCR5 antagonist TAK-779.

[3] = test system: CXCR4-using (X4) strains, HIV-1 IIIB; test: p24 antigen production in HIV-infected M/M (CXCR4-using strain); format: cell-based; settings: M/M infected by HIV-1 IIIB; data not shown
Procedure: (§1) Viral replication and production in HIV-infected M/M treated with DAPTA was assessed 14 and 21 days after infection for p24 antigen production.

HIV [4] = settings: main endpoint of the small trial; cited from earlier work
HIV-1 = settings: 18 hours postinfection, vs not-treated cells
Procedure: Eighteen hours postinfection, genomic DNA was extracted and two-fold dilution of cell equivalents (range 1×10^6-1.25×10^5) were amplified in an inverse/nested PCR specific for a conserved gag region of the viral genome. Semi-quantitative analyses of HIV-1 DNA in M/M were performed by comparison of DNA amplification products from infected cells, standardized by PCR for β-actin, to standards of amplified U1 DNA copies and cell numbers. The UN-SCAN IT-gel software (Silk Scientific Inc.) was used to determine band densities (FIG. 3A).

[5] = aggregation of peptide in solution; format: physicochemical
Excerpt: These marginal clinical benefits were inexplicable in the context of the many successful in vitro studies and an explanation was sought. […] Therefore reduction to practice required that the non-obvious formation of multimers must be remedied for considerations of both patient safety and drug efficacy.

CCR5 [6] = target: T1, CCR5; test: competition between CCR5-FITC antibody and DAPTA in M/M, flow cytometry; format: cell-based; set-up: endogenous in cells; host or cells: human primary monocyte/macrophages (M/M)
Excerpt: To confirm that monomeric DAPTA binding is specific for CCR5, a competition experiment between CCR5-FITC antibody and DAPTA in M/M was done. […] Treatment with monomeric DAPTA reduced CCR % expression to 9% with 10^−12 M DAPTA, compared with 35% of mock-treated M/M (FIG. 2) (p≦0.001).

HIV [7] = settings: doses as high as 10^−7 M; cited from earlier work
HIV [8] = settings: frozen stored plasma samples; p=.037; cited from earlier work
[9] = test system: CCR5-using HIV-1 strain, 81A; test: p24 antigen production in HIV-infected M/M (CCR5-using strain); format: cell-based
Procedure: as §1

T1 sequence (P51681 whole entry): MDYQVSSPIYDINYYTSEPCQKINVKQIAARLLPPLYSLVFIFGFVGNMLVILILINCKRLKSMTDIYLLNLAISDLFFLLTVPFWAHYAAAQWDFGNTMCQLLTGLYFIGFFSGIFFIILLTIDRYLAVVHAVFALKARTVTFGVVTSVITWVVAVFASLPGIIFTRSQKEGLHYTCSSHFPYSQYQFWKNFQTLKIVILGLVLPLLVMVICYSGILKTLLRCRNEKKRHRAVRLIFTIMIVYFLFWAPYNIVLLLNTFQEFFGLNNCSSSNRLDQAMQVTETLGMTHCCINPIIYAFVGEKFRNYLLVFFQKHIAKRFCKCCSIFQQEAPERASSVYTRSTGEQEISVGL

Compound	inhibition of CCR5 expression (CCR5 [1]; 1.8×10^−6 M)	inhibition of apoptosis ([2]; 1.8×10^−6 M, vs cells not treated)	effect on HIV-1 p24 antigen production [3]	plasma viral load (HIV [4])	decline of HIV-1 DNA per 2.5×10^5 cells (HIV-1; 10^−7 M)	decline of HIV-1 DNA per 2.5×10^5 cells (HIV-1; 10^−9 M)	inhibition of CCR5 expression (CCR5 [1]; 10^−12M, vs unexposed SK-N-SH)	inhibition of CCR5 expression (CCR5 [1]; 10^−13M, vs unexposed SK-N-SH)	aggregation in solution [5]	inhibition of CCR5-binding, maximum (CCR5 [6]; 10^−12 M)	CCR5 expression (CCR5+ M/M) (CCR5 [6]; 10^−12 M, mock-treated 35%)	CCR5+ positive M/M (CCR5 [6]; DAPTA treated M/M, mock-treated 35%)	inhibition of CCR5-binding (CCR5 [6]; overall, several DAPTA doses)	antiviral effects (Sodroski) (HIV [7])	reduction in viral load (HIV [8])	reduction of p24 gag antigen production of control M/M cultures ([9]; HIV-1 81A, doses as low as 10^−14 M, 14 and 21 days after infection)	effective dose lower than described in earlier reports (enhanced in vitro potency) ([9]; monomeric formulation vs earlier reports)	apoptosis, share of SK-N-SH cells ([2]; 10^−3M)	apoptosis, share of SK-N-SH cells ([2]; 10^−12M)
Cc1ccc(-c2ccc3c(c2)C=C(C(=O)Nc2ccc(C[N+](C)(C)C4CCOCC4)cc2)CCC3)cc1.[Cl-] [TAK-779, reference compound]	about 61%	30%	–	–	–	–	–	–	–	–	–	–	–	–	–	–	–	–	–
Dala1-peptide T-amide [DAPTA]	–	–	no effect	failing to reduce plasma viral load	64%	70%	72%	68.5%	quickly formed aggreagates in solution	73%	9%	20%	about 43%	failed to find antiviral effects	0.54 log 10	~80%	100-100,000 fold	28%	26%
